Assay results reported in patent publication US4642314A, “Antiulcer compounds” (Nisshin Flour Milling Co., Ltd., priority 1984, dated 1987).

Legend:
[1] = system: acetic acid-induced ulcer; assay: Acetic acid-induced ulcer (Curative test); type: in vivo, rat (male SD rats); settings: Table 2; rat, 0.05 ml of 15% acetic acid underneath the serosa; lesion area on 14th day
Description: (§1) In the case of reserpine-induced ulcer, the assay was performed according to the description in "Arch. Int. Pharmacodym. Ther. 147,113 (1964)", and in the case of acetic acid-induced ulcer, the assay was performed according to the method described in "Jap. J. Pharmac. 19,418 (1969)", by inducing experimental ulcer in rat and evaluating the effect thereon of the compounds tested.
Groups of rats, each consisting of 6 male SD rats weighing 150-200 g were used. The stomach of ether-anesthesized rat was exposed and while taking acre not to injure blood vessels, 0.05 ml of 15% aqueous acetic acid solution was injected underneath the serosa. On the 14th day, the rats were killed with chloroform, the stomach taken out and the area of the infected lesion measured.
The curative ratio was calculated using the above equation: [formula]

[2] = acute toxicity (LD50), intraperitoneal route in mice; type: in vivo; settings: mouse, in vivo, ip
reserpine-induced ulcer = assay: Reserpine-induced ulcer (Preventive test); type: in vivo, rat (male SD rats); settings: Table 1; rat, 100 mg/kg oral, 30 min before reserpine 15 mg/kg i.p.; evaluated at 18 h; read-out: Preventive effect (preventive ratio)
Description: as §1
Groups of rats, each consisting of 6 male SD rats weighing 150-200 g were used. After 24 hours' fasting, a sample compound was orally administered to the rat at the dose of 100 mg/kg body weight, and 30 minutes after the administration, reserpine was intraperitoneally injected at the dose of 15 mg/kg body weight. Eighteen hours after the administration, the rats were killed with chloroform. The stomach was taken out, and severity of the hemorrhaging lesion was evaluated according to the method as above ("Arch. Int. Pharmacodym. Ther. 147,113 (1964)).
The preventive ratio was calculated using the following equation, [formula] wherein the control animals were intraperitoneally given reserpine only, at the dose of 15 mg/kg body weight.

| Compound | Curative effect (curative ratio) [1] | LD50 ([2]; Table 2) [mg/kg] | inhibition in vivo at 100 mg/kg (reserpine-induced ulcer) [%] | LD50 ([2]; Table 1) [mg/kg] |
| --- | --- | --- | --- | --- |
| CC(C)=CCCC(C)=CCCC(C)=CCCC(C)=CCCC(C)=CCCC(C)=CCCC(C)=CCCC(C)=CCCC(C)=CCCC(C)=CCO [Decaprenol] | +++ (40%-) | > 4000 | – | – |
| CCCCCCCC/C=C/CCCCCCCCCCCC(=O)OCC=C(C)CCC=C(C)CCC=C(C)CCC=C(C)CCC=C(C)CCC=C(C)CCC=C(C)CCC=C(C)CCC=C(C)CCC=C(C)C [Decaprenyl brassidate] | ++ (25%-40%) | > 4000 | – | – |
| CCCCCCCC/C=C/CCCCCCCC(=O)OCC=C(C)CCC=C(C)CCC=C(C)CCC=C(C)CCC=C(C)CCC=C(C)CCC=C(C)CCC=C(C)CCC=C(C)CCC=C(C)C [Decaprenyl elaidate] | – | – | 10 to 40 | > 5000 |
| CC(C)=CCCC(C)=CCCC(C)=CCCC(=O)OCC=C(C)CCC=C(C)CCC=C(C)CCC=C(C)CCC=C(C)CCC=C(C)CCC=C(C)CCC=C(C)CCC=C(C)CCC=C(C)C [Decaprenyl farnesylacetate] | + (10%-25%) | > 5000 | – | – |
| CC(C)=CCCC(C)=CCCC(=O)OCC=C(C)CCC=C(C)CCC=C(C)CCC=C(C)CCC=C(C)CCC=C(C)CCC=C(C)CCC=C(C)CCC=C(C)CCC=C(C)C [Decaprenyl geranylacetate] | + (10%-25%) | > 5000 | – | – |
| CCCCCCCCCCC/C=C\CCCCC(=O)OCC=C(C)CCC=C(C)CCC=C(C)CCC=C(C)CCC=C(C)CCC=C(C)CCC=C(C)CCC=C(C)CCC=C(C)CCC=C(C)C [Decaprenyl petroselinate] | ++ (25%-40%) | > 4000 | – | – |
| CC(C)=CCCC(C)=CCCC(C)=CCCC(C)=CCCC(C)=CCCC(C)=CCCC(C)=CCCC(C)=CCCC(C)=CCCC(=O)OCC=C(C)CCC=C(C)CCC=C(C)CCC=C(C)CCC=C(C)CCC=C(C)CCC=C(C)CCC=C(C)CCC=C(C)CCC=C(C)C [Decaprenyl solanesylacetate] | + (10%-25%) | > 5000 | – | – |
| CCCCCCCC/C=C\CCCCCCCC(=O)OCCC(C)CCCC(C)CCCC(C)CCCC(C)C (stereo not shown) [Dihydrophytyl oleate] | – | – | 10 to 40 | > 4000 |
| CCCCCCCCCCCCCCCCCC(=O)OCCC(C)CCCC(C)CCCC(C)CCCC(C)C (stereo not shown) [Dihydrophytyl stearate] | – | – | 10 to 40 | > 4000 |
| CCOC(=O)CCC=C(C)CCC=C(C)CCC=C(C)CCC=C(C)CCC=C(C)CCC=C(C)CCC=C(C)CCC=C(C)CCC=C(C)CCC=C(C)C [Ethyl decaprenylacetate] | +++ (40%-) | > 4000 | – | – |
| CCOC(=O)CCC=C(C)CCC=C(C)CCC=C(C)CCC=C(C)CCC=C(C)CCC=C(C)CCC=C(C)CCC=C(C)CCC=C(C)C [Ethyl solanesylacetate] | ++ (25%-40%) | > 4000 | – | – |
| CC(C)=CCCC(C)=CCCC(C)=CCCC(C)=CCCC(C)=CCCC(C)=CCCC(C)=CCCC(C)=CCCC(C)=CCCC(C)=CCCC(=O)OCCC(C)C [Isoamyl decaprenylacetate] | + (10%-25%) | > 4000 | – | – |
| CC(C)=CCCC(C)=CCCC(C)=CCCC(C)=CCCC(C)=CCCC(C)=CCCC(C)=CCCC(C)=CCCC(C)=CCCC(C)=CCCC(=O)OC(C)C [Isopropyl decaprenylacetate] | + (10%-25%) | > 4000 | – | – |
| C/C(=C\CCC(=O)OC(C)C)CCC[C@H](C)CCC[C@H](C)CCCC(C)C [Isopropyl phytylacetate] | – | – | 10 to 40 | > 5000 |
| COC(=O)CCC=C(C)CCC=C(C)CCC=C(C)CCC=C(C)CCC=C(C)CCC=C(C)CCC=C(C)CCC=C(C)CCC=C(C)CCC=C(C)C [Methyl decaprenylacetate] | ++ (25%-40%) | > 4000 | – | – |
| COC(=O)CC/C=C(\C)CCC[C@H](C)CCC[C@H](C)CCCC(C)C [Methyl phytlacetate, Methyl phytylacetate] | – | – | 10 to 40 | > 5000 |
| COC(=O)CCC=C(C)CCC=C(C)CCC=C(C)CCC=C(C)CCC=C(C)CCC=C(C)CCC=C(C)CCC=C(C)CCC=C(C)C [Methyl solanesylacetate] | ++ (25%-40%) | > 4000 | – | – |
| CCCCCCCCC1OC1CCCCCCCC(=O)OC/C=C(\C)CCC[C@H](C)CCC[C@H](C)CCCC(C)C (stereo partly shown) [Phytyl 9,10-epoxystearate] | + (10%-25%) | > 5000 | – | – |
| CC(C)=CCCC(C)CCCC(=O)OC/C=C(\C)CCC[C@H](C)CCC[C@H](C)CCCC(C)C (stereo partly shown) [Phytyl citronellylacetate] | – | – | 10 to 40 | > 5000 |

| Compound | Curative effect (curative ratio) [1] | LD50 ([2]; Table 2) [mg/kg] | inhibition in vivo at 100 mg/kg (reserpine-induced ulcer) [%] | LD50 ([2]; Table 1) [mg/kg] |
| --- | --- | --- | --- | --- |
| CCCCCCCC/C=C/CCCCCCCC(=O)OC/C=C(\C)CCC[C@H](C)CCC[C@H](C)CCCC(C)C [Phytyl elaidate] | + (10%-25%) | > 4000 | – | – |
| CCCCCCCC/C=C\CCCCCCCCCCCC(=O)OC/C=C(\C)CCC[C@H](C)CCC[C@H](C)CCCC(C)C [Phytyl erucate] | – | – | 10 to 40 | > 4000 |
| CC(C)=CCCC(C)=CCCC(C)=CCCC(=O)OC/C=C(\C)CCC[C@H](C)CCC[C@H](C)CCCC(C)C [Phytyl farnesylacetate] | – | – | 10 to 40 | > 5000 |
| CC(C)=CCC/C(C)=C/CCC(=O)OC/C=C(\C)CCC[C@H](C)CCC[C@H](C)CCCC(C)C [Phytyl geranylacetate] | – | – | 10 to 40 | > 5000 |
| CCCCCCCCCCCC(=O)OC/C=C(\C)CCC[C@H](C)CCC[C@H](C)CCCC(C)C [Phytyl laurate] | – | – | 40 to 60 | > 5000 |
| CCCCC/C=C\C/C=C\CCCCCCCC(=O)OC/C=C(\C)CCC[C@H](C)CCC[C@H](C)CCCC(C)C [Phytyl linoleate] | + (10%-25%) | > 4000 | – | – |
| CCCCCCCCCCCCCCCC(=O)OC/C=C(\C)CCC[C@H](C)CCC[C@H](C)CCCC(C)C [Phytyl palmitate] | – | – | 40 to 60 | > 5000 |
| CCCCCCCCCCC/C=C\CCCCC(=O)OC/C=C(\C)CCC[C@H](C)CCC[C@H](C)CCCC(C)C [Phytyl petroselinate] | ++ (25%-40%) | > 5000 | – | – |
| C/C(=C\CCC(=O)OC/C=C(\C)CCC[C@H](C)CCC[C@H](C)CCCC(C)C)CCC[C@H](C)CCC[C@H](C)CCCC(C)C [Phytyl phytylacetate] | – | – | 40 to 60 | > 5000 |
| CCCCCC[C@@H](O)C/C=C\CCCCCCCC(=O)OC/C=C(\C)CCC[C@H](C)CCC[C@H](C)CCCC(C)C [Phytyl ricinoleate] | + (10%-25%) | > 5000 | – | – |
| CCCCCCCCCCCCCCCCCC(=O)OC/C=C(\C)CCC[C@H](C)CCC[C@H](C)CCCC(C)C [Phytyl stearate] | + (10%-25%) | > 4000 | – | – |
| CC(=O)OCC=C(C)CCC=C(C)CCC=C(C)CCC=C(C)CCC=C(C)CCC=C(C)CCC=C(C)CCC=C(C)CCC=C(C)C [Solanesyl acetate] | – | – | 40 to 60 | > 4000 |
| CC(C)=CCCC(C)=CCCC(C)=CCCC(C)=CCCC(C)=CCCC(C)=CCCC(C)=CCCC(C)=CCCC(C)=CCCC(C)=CCCC(=O)OCC=C(C)CCC=C(C)CCC=C(C)CCC=C(C)CCC=C(C)CCC=C(C)CCC=C(C)CCC=C(C)CCC=C(C)C [Solanesyl decaprenylacetate] | – | – | 10 to 40 | > 4000 |
| CC(C)=CCCC(C)=CCCC(C)=CCCC(=O)OCC=C(C)CCC=C(C)CCC=C(C)CCC=C(C)CCC=C(C)CCC=C(C)CCC=C(C)CCC=C(C)CCC=C(C)C [Solanesyl farnesylacetate] | – | – | 10 to 40 | > 4000 |
| CC(C)=CCCC(C)=CCCC(=O)OCC=C(C)CCC=C(C)CCC=C(C)CCC=C(C)CCC=C(C)CCC=C(C)CCC=C(C)CCC=C(C)CCC=C(C)C [Solanesyl geranylacetate] | + (10%-25%) | > 4000 | – | – |
| CC(C)=CCCC(C)=CCCC(C)=CCCC(C)=CCCC(C)=CCCC(C)=CCCC(C)=CCCC(C)=CCCC(C)=CCOC(=O)CCC=C(C)CCCC(C)CCCC(C)CCCC(C)C (stereo not shown) [Solanesyl phytylacetate] | – | – | 10 to 40 | > 4000 |
| CC(C)=CCCC(C)=CCCC(C)=CCCC(C)=CCCC(C)=CCCC(C)=CCCC(C)=CCCC(C)=CCCC(C)=CCCC(=O)OCC=C(C)CCC=C(C)CCC=C(C)CCC=C(C)CCC=C(C)CCC=C(C)CCC=C(C)CCC=C(C)CCC=C(C)C [Solanesyl solanesylacetate] | – | – | 10 to 40 | > 4000 |
| CC(C)=CCCC(C)=CCCC(C)=CCCC(C)=CCCC(C)=CCCC(C)=CCCC(C)=CCCC(C)=CCCC(C)=CCCC(=O)O [Solanesylacetic acid] | + (10%-25%) | > 4000 | – | – |
| CC(C)=CCCC(C)CCCC(=O)Oc1c(C)c(C)c2c(c1C)CCC(C)(CCCC(C)CCCC(C)CCCC(C)C)O2 (stereo not drawn) [α-Tocopheryl citronellylacetate] | – | – | > 60 | > 4000 |
